Test results as given in patent US20240124442A1, “TRICYCLIC-AMIDO-BICYCLIC PRMT5 INHIBITORS” (AMGEN INC., priority 2021, published 2024).

What was measured:
HCT116 WT cells = assay: HCT116 WT (parent) cell line proliferation / cell viability (CellTiter-Glo, 6 days); format: cell-based; details: Homo sapiens, HCT-116, 144 h, 6 days treatment
Procedure: (§1) HCT116 Proliferation Activity
(§2) To assess selective anti-proliferative activity of compounds of the invention in cells that have loss expression of MTAP, an HCT-116 isogenic cell line pair was utilized where one cell line was engineered to genetically knockout both MTAP alleles. Cell viability was then assessed in both the parent HCT-116 cell line and the MTAP null cell line after 6 days of treatment with compounds of the present invention. Selective anti-proliferative activity in the MTAP null cell line indicates MTA-cooperative inhibition of PRMT5 and ability to inhibit growth of cancer cells that have loss of MTAP.
(§3) HCT116 MTAP null and WT cells were seeded in 96-well tissue culture plates in RPMI 1640 media+10% fetal bovine serum. Plates were incubated overnight at 37° C. and 5% CO2. Cells were then treated with an 8- or 9-point serial dilution of compound, using a top concentration of 1, or 10 μM, 1:3 serial dilution steps and, a DMSO-only control. Cells were incubated in the presence of drug for 6 days. Effects on cell viability were measured with the CellTiter-Glo® Luminescent Cell Viability Assay (Promega) per manufacturer's recommendation. Assay plates were read on an EnVision™ Multilabel Reader using the Ultra-Sensitive luminescence module. IC50 values were calculated with GraphPad Prism v 5.01 using symmetrical sigmoidal dose-response least squares fit with Hill slope fixed to −1 and top constrain to 100% or GeneData Screener using a 4-parameter logistic model to fit dose response curves.
(§4) Alternatively, compounds could be assayed with a 384 well plate format:
(§5) Compounds were pre-spotted into 384 well plates with a 22-point serial dilution of compound, using a top concentration of 10 or 50 μM, 1:2 serial dilution steps and, a DMSO-only control. HCT116 MTAP null and WT cells were then seeded as above and after 6 days effects on cell viability were measured with the CellTiter-Glo® Luminescent Cell Viability Assay (Promega). Assay plates were read as above and IC50 values were calculated with GeneData Screener using a 4-parameter logistic model to fit dose response curves. The reported IC50 represents the value where the curve transits 50% of control.

HCT116 MTAP null cells = assay: HCT116 MTAP null cell line proliferation / cell viability (CellTiter-Glo, 6 days); format: cell-based; details: 144 h; HCT116 MTAP null cells, 6 days treatment, CellTiter-Glo cell viability; read-out: HCT-116 MTAP null IC50
Procedure: as §1, §2, §3, §4, §5

Row | Structure (SMILES) | IC50 (HCT116 WT cells) [nM] | IC50 (HCT116 MTAP null cells) [nM]
1 | CC(C)S(=O)(=O)c1ccc2c(c1)OCC2N(C)C(=O)c1cc2c3c(c(N)nc2cc1F)COC3 (racemic) [Example 464, 4-amino-7-fluoro-N-methyl-N-((3R)-6-(2-propanylsulfonyl)-2,3-dihydro-1-benzofuran-3-yl)-1,3-dihydrofuro[3,4-c]quinoline-8-carboxamide and 4-amino-7-fluoro-N-methyl-N-((3S)-6-(2-propanylsulfonyl)-2,3-dihydro-1-benzofuran-3-yl)-1,3-dihydrofuro[3,4-c]quinoline-8-carboxamide] | 1880 | 22
2 | CN(C(=O)c1cc2c3c(c(N)nc2cc1F)COC3)C1COc2cc(Br)cnc21 (racemic) [Example 465, 4-amino-N-((3R)-6-bromo-2,3-dihydrofuro[3,2-b]pyridin-3-yl)-7-fluoro-N-methyl-1,3-dihydrofuro[3,4-c]quinoline-8-carboxamide and 4-amino-N-((3S)-6-bromo-2,3-dihydrofuro[3,2-b]pyridin-3-yl)-7-fluoro-N-methyl-1,3-dihydrofuro[3,4-c]quinoline-8-carboxamide] | 32200 | 1420
3 | CN(C(=O)c1cc2c3c(c(N)nc2cc1Cl)COC3)C1COc2cc(C(F)(F)F)cc(F)c21 (racemic) [Example 472, 4-amino-7-chloro-N-((3R)-4-fluoro-6-(trifluoromethyl)-2,3-dihydro-1-benzofuran-3-yl)-N-methyl-1,3-dihydrofuro[3,4-c]quinoline-8-carboxamide and 4-amino-7-chloro-N-((3S)-4-fluoro-6-(trifluoromethyl)-2,3-dihydro-1-benzofuran-3-yl)-N-methyl-1,3-dihydrofuro[3,4-c]quinoline-8-carboxamide] | 1140 | 22
4 | CN(C(=O)c1cc2c(cc1F)nc(N)c1cnn(C)c12)C1CSc2cc(Br)ccc21 (racemic) [Example 479, 4-amino-N-((3R)-6-bromo-2,3-dihydro-1-benzothiophen-3-yl)-7-fluoro-N,1-dimethyl-1H-pyrazolo[4,3-c]quinoline-8-carboxamide and 4-amino-N-((3S)-6-bromo-2,3-dihydro-1-benzothiophen-3-yl)-7-fluoro-N,1-dimethyl-1H-pyrazolo[4,3-c]quinoline-8-carboxamide] | 710 | 23
5 | CN(C(=O)c1cc2c(cc1F)nc(N)c1c2cnn1C)C1COc2cc(C#N)ccc21 (racemic) [Example 482, 4-amino-N-((3R)-6-cyano-2,3-dihydro-1-benzofuran-3-yl)-7-fluoro-N,3-dimethyl-3H-pyrazolo[3,4-c]quinoline-8-carboxamide and 4-amino-N-((3S)-6-cyano-2,3-dihydro-1-benzofuran-3-yl)-7-fluoro-N,3-dimethyl-3H-pyrazolo[3,4-c]quinoline-8-carboxamide] | 17500 | 166
6 | CN(C(=O)c1cc2c(cc1F)nc(N)c1c2cnn1C)C1CSc2cc(Br)ccc21 (racemic) [Example 484, 4-amino-N-((3R)-6-bromo-2,3-dihydro-1-benzothiophen-3-yl)-7-fluoro-N,3-dimethyl-3H-pyrazolo[3,4-c]quinoline-8-carboxamide and 4-amino-N-((3S)-6-bromo-2,3-dihydro-1-benzothiophen-3-yl)-7-fluoro-N,3-dimethyl-3H-pyrazolo[3,4-c]quinoline-8-carboxamide] | 5590 | 221
7 | CN(C(=O)c1cc2c(cc1Cl)nc(N)c1c2cnn1C)C1CCc2nc(C(F)(F)F)ccc21 (racemic) [Example 485, 4-amino-7-chloro-N,3-dimethyl-N-((5R)-2-(trifluoromethyl)-6,7-dihydro-5H-cyclopenta[b]pyridin-5-yl)-3H-pyrazolo[3,4-c]quinoline-8-carboxamide and 4-amino-7-chloro-N,3-dimethyl-N-((5S)-2-(trifluoromethyl)-6,7-dihydro-5H-cyclopenta[b]pyridin-5-yl)-3H-pyrazolo[3,4-c]quinoline-8-carboxamide] | 11700 | 125
